The target of one test is T1, IKZF2 (Homo sapiens, UniProt Q96SW2+Q9UKS7).
T1 construct: expressed in transfected cells
Put plainly: HiBiT protein tagging assay, in vitro IKZF2 degradation (HEK293). The class given is cell-based. As to conditions: HEK293, 18-24 hr incubation, normalized to DMSO control; for Dmax: HEK293, HiBiT assay, read-out: IKZF2 Dmax (maximum degradation at the highest concentration tested); for DC50: HiBiT assay, read-out: IKZF2 EC50. The procedure, abridged:
(§1)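 Flp-In T-REx HEK293 pools stably expressing C-terminal HiBiT-tagged IKZF1 or IKZF2 were induced overnight with 1 μg/ml doxycycline. Cells were then treated with serially diluted compound for 18-24 hr at 37 °C and read by Nano-Glo lytic luminescence. Data were normalized to 0.5% DMSO as POC; EC50 and Dmax (maximum degradation at highest concentration tested) reported.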

The target of another test is T2, IKZF1 (Homo sapiens, UniProt Q13422+Q96SW2).
T2 construct: expressed in transfected cells
T2 sequence (Q13422 whole entry): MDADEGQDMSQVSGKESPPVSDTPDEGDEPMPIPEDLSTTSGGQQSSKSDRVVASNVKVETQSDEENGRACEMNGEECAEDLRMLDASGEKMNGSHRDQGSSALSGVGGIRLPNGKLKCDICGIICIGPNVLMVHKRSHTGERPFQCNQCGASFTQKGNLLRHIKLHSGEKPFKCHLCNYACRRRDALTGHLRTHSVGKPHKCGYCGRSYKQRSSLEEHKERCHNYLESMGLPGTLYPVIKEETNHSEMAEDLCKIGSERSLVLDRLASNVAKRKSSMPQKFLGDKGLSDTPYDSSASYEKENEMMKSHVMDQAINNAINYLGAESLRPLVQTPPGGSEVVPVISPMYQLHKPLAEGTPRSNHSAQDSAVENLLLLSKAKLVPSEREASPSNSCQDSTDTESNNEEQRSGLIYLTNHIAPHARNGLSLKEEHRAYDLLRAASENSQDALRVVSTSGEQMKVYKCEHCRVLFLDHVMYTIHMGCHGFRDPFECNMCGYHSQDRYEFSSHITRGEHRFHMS
T2 sequence (Q96SW2 whole entry): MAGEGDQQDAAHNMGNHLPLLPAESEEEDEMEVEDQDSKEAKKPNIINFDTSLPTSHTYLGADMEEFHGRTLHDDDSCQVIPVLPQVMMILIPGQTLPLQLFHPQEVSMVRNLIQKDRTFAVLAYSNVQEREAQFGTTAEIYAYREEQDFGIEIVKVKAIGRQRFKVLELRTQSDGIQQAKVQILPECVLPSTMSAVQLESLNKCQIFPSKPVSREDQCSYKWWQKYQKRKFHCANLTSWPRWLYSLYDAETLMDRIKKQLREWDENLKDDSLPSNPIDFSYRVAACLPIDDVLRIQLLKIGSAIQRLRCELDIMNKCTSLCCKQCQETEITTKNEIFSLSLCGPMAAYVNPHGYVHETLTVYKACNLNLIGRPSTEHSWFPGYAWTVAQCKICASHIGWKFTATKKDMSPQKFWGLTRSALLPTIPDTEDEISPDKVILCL
T2 sequence (Q16531 whole entry partner): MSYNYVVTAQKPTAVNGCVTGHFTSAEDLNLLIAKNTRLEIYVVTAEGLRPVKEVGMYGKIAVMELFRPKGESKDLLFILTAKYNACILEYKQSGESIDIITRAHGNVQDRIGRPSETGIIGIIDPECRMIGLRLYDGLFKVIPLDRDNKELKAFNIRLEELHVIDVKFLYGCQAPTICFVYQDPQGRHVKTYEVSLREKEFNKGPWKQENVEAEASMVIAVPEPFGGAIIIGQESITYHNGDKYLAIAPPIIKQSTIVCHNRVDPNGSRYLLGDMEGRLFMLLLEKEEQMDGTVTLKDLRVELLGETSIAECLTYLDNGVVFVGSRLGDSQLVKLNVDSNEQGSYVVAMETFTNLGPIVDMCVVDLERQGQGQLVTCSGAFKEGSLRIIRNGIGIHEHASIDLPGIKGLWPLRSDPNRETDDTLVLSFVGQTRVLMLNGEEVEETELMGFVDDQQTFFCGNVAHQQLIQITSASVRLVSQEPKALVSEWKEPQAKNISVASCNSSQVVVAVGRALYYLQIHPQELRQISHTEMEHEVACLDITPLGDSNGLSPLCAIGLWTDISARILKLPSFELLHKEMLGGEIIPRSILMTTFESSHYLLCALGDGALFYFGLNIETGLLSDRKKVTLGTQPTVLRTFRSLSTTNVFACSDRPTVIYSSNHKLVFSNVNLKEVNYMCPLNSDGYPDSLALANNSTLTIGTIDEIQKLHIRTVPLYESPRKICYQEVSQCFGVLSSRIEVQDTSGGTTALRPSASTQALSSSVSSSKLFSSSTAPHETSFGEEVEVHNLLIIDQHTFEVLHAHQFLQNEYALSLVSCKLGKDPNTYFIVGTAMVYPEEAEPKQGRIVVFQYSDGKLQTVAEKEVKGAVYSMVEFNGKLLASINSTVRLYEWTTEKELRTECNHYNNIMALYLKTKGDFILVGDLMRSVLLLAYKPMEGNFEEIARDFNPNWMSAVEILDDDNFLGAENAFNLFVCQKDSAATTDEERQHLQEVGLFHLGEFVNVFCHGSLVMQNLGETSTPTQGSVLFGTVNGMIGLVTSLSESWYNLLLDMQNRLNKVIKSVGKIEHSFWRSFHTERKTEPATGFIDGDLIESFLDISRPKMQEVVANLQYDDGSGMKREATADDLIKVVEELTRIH
Put plainly: HiBiT protein tagging assay, in vitro IKZF1 degradation (HEK293). It counts as cell-based. Particulars: HEK293, 18-24 hr incubation, normalized to DMSO control; for Dmax: read-out: IKZF1 Dmax (maximum degradation at the highest concentration tested); for DC50: read-out: IKZF1 EC50. The procedure, abridged:
as §1

T1 sequence (Q9UKS7 1-500 isoform Q9UKS7-2): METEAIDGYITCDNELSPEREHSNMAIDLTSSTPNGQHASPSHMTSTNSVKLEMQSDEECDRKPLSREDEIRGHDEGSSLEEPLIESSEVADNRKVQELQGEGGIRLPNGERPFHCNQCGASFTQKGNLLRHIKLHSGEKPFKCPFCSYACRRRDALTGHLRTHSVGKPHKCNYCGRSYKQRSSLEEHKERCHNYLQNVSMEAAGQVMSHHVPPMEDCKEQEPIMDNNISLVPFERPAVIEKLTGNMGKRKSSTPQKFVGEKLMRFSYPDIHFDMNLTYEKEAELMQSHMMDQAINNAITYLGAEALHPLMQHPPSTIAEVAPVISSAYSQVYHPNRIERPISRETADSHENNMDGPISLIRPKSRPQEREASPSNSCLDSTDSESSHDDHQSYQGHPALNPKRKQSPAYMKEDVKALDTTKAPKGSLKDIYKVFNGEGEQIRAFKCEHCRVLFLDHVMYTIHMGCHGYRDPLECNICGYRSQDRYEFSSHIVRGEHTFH
T1 sequence (Q96SW2 whole entry): as the sequence (Q96SW2 whole entry) above
T1 sequence (Q16531 whole entry partner): as the sequence (Q16531 whole entry partner) above

Take `O=C1CCC(N2Cc3cc(CN[C@@H]4CCCN(c5ccccc5)C4)ccc3C2=O)C(=O)N1` (stereo partly drawn) [Example 30, 3-(1-oxo-5-((((R)-1-phenylpiperidin-3-yl)amino)methyl)isoindolin-2-yl)piperidine-2,6-dione]: at IKZF2, the Dmax was determined as 36% and the DC50 is 0.208 µM. On IKZF1, the Dmax was 44% and the DC50 is 0.09 µM.
On the same counts, the results for `O=C1CCC(N2Cc3cc(CN[C@H]4CC[C@](O)(c5ccccc5)CC4)ccc3C2=O)C(=O)N1` (stereo partly drawn) [Example 65] are 90%, 0.067 µM, 86% and 0.029 µM.
In the case of `O=C1CCC(N2Cc3cc(CNC4CCN(C(=O)NCc5ccccc5)CC4)ccc3C2=O)C(=O)N1` (stereo not drawn) [Example 4, N-benzyl-4-(((2-(2,6-dioxopiperidin-3-yl)-1-oxoisoindolin-5-yl)methyl)amino)piperidine-1-carboxamide], the Dmax at IKZF2 and at IKZF1 was 95% each time. Further, the DC50 was determined as 1.7 µM on IKZF2 and 0.068 µM at IKZF1.
On to `C[C@H]1CCCC[C@H]1NCc1ccc2c(c1)CN(C1CCC(=O)NC1=O)C2=O` (stereo partly drawn) [Example 78], for which the values for the Dmax at IKZF2 and at IKZF1 were 81% and 30%, respectively. Also, the DC50 was 0.115 µM on IKZF2 and 1.7 µM at IKZF1.
`O=C1CCC(N2Cc3cc(CN[C@H](CO)c4ccccc4)ccc3C2=O)C(=O)N1` (stereo partly drawn) [Example 52]: on IKZF2, the Dmax was determined as 22% and the DC50 turned out to be 0.472 µM. On IKZF1, the DC50 was above 10 µM.
On to `C[C@@H]1[C@H](NCc2ccc3c(c2)CN(C2CCC(=O)NC2=O)C3=O)CCCN1Cc1ccccc1` (stereo partly drawn) [Example 106, 3-(5-((((2R,3R)-1-benzyl-2-methylpiperidin-3-yl)amino)methyl)-1-oxoisoindolin-2-yl)piperidine-2,6-dione], for which, at IKZF2, the Dmax worked out at 43% and the DC50 worked out at 0.381 µM. Also, on IKZF1, the Dmax came to 86% and the DC50 was 0.093 µM.
For `O=C1CCC(N2Cc3cc(CN[C@@H]4CCC[C@H](C(=O)c5ccccc5)C4)ccc3C2=O)C(=O)N1` (stereo partly drawn) [Example 129], on IKZF2, the Dmax was determined as 60% and the DC50 amounted to 0.193 µM. Also, at IKZF1, the Dmax was determined as 60% and the DC50 stood at 0.113 µM.
`O=C1CCC(N2Cc3cc(CN[C@H]4CCC[C@@H]4NCc4ccccc4)ccc3C2=O)C(=O)N1` (stereo partly drawn) [Example 157, 3-(5-((((1S,2S)-2-(benzylamino)cyclopentyl)amino)methyl)-1-oxoisoindolin-2-yl)piperidine-2,6-dione]: at IKZF2, the Dmax amounted to 43% and the DC50 is 0.443 µM. Moreover, at IKZF1, the Dmax came to 66% and the DC50 stood at 0.131 µM.
Consider `C[C@@H]1[C@@H](NCc2ccc3c(c2)CN(C2CCC(=O)NC2=O)C3=O)C[C@H]2C[C@@H]1C2(C)C` (stereo partly drawn) [Example 134], for which, on IKZF2, the Dmax came out at 89%. The DC50 at IKZF2 was 0.111 µM; on IKZF1 it was above 10 µM.
For the compound `O=C1CCC(N2Cc3cc(CNC4CCc5cccnc5C4)ccc3C2=O)C(=O)N1` (stereo not drawn) [Example 70, 3-(1-oxo-5-(((5,6,7,8-tetrahydroquinolin-7-yl)amino)methyl)isoindolin-2-yl)piperidine-2,6-dione], on IKZF2, the Dmax came to 67% and the DC50 turned out to be 0.303 µM. Further, on IKZF1, the Dmax is 42% and the DC50 was 0.089 µM.
On the same counts, the results for `N#CC[C@H]1CC[C@H](NCc2ccc3c(c2)CN(C2CCC(=O)NC2=O)C3=O)CC1` (stereo partly drawn) [Example 63] are 91%, 0.361 µM, 44% and 0.609 µM.
Regarding `O=C1CCC(N2Cc3cc(CN[C@@H]4CCC[C@H](COCc5ccccc5)C4)ccc3C2=O)C(=O)N1` (stereo partly drawn) [Example 146], the results for the Dmax on IKZF2 and at IKZF1 were 94% and 93%, respectively. Also, the DC50 on IKZF2 was found to be 0.009 µM; at IKZF1, 0.005 µM.
Regarding `O=C1CCC(N2Cc3cc(CN[C@@H]4CCC[C@H]([C@H](O)c5ccccc5)C4)ccc3C2=O)C(=O)N1` (stereo partly drawn) [Example 136], the Dmax at IKZF2 stood at 95%; at IKZF1, 93%. Moreover, the DC50 at IKZF2 stood at 0.204 µM; at IKZF1, 0.099 µM.
As to `O=C1CCC(N2Cc3cc(CNC4CCCC(Cn5ncc6ccccc65)C4)ccc3C2=O)C(=O)N1` (stereo not drawn) [Example 122], the results for the Dmax at IKZF2 and on IKZF1 were 96% and 97%, respectively. Moreover, the figures for the DC50 on IKZF2 and on IKZF1 were 0.048 µM and 0.022 µM, respectively.
For `O=C1CCC(N2Cc3cc(CN[C@H]4CCC[C@@H](Nc5ccccc5)C4)ccc3C2=O)C(=O)N1` (stereo partly drawn) [Example 91], in that order: 73%, 63%, 0.333 µM and 0.116 µM.
On the same counts, the results for `O=C1CCC(N2Cc3cc(CNC4CCN(c5ccncc5)CC4)ccc3C2=O)C(=O)N1` (stereo not drawn) [Example 37, 3-(1-oxo-5-(((1-(pyridin-4-yl)piperidin-4-yl)amino)methyl)isoindolin-2-yl)piperidine-2,6-dione] are 76%, 56%, 1 µM and 0.667 µM.
For `O=C1CCC(N2Cc3cc(CNC4CCCC(Cn5cccn5)C4)ccc3C2=O)C(=O)N1` (stereo not drawn) [Example 121], in that order: 92%, 93%, 0.336 µM and 0.169 µM.
`O=C1CCC(N2Cc3cc(CN[C@@H]4CCC[C@H](Nc5ccccc5)C4)ccc3C2=O)C(=O)N1` (stereo partly drawn) [Example 90]: at IKZF2, the Dmax worked out at 92% and the DC50 is 0.095 µM. Moreover, on IKZF1, the Dmax is 88% and the DC50 came to 0.03 µM.
As for `O=C1CCC(N2Cc3cc(CNC4CCN(c5ccccc5)CC4)ccc3C2=O)C(=O)N1` (stereo not drawn) [Example 2, 3-(1-oxo-5-(((1-phenylpiperidin-4-yl)amino)methyl)isoindolin-2-yl)piperidine-2,6-dione], the Dmax at IKZF2 amounted to 83%; on IKZF1, 80%. Further, the results for the DC50 on IKZF2 and at IKZF1 were 0.058 µM and 0.019 µM, respectively.
Turning to `O=C1CCC(N2Cc3cc(CNC4CCC(Cc5ccccc5)C4)ccc3C2=O)C(=O)N1` (stereo not drawn) [Example 69], at IKZF2, the Dmax worked out at 68% and the DC50 was 0.113 µM. Further, on IKZF1, the Dmax came to 57% and the DC50 is 0.066 µM.
For `O=C1CCC(N2Cc3cc(CNC4CCC5(CCCCC5)CC4)ccc3C2=O)C(=O)N1` (stereo not drawn) [Example 83], in that order: 69%, 0.106 µM, 42% and 0.084 µM.
On the same counts, the results for `O=C1CCC(N2Cc3cc(CN[C@H]4C[C@@H](O)C4)ccc3C2=O)C(=O)N1` (stereo partly drawn) [Example 54] are 33%, 2.8 µM, 28% and 0.367 µM.
Regarding `O=C1CCC(N2Cc3cc(CNC4(CCc5ccccc5)CCCCC4)ccc3C2=O)C(=O)N1` (stereo not drawn) [Example 152, 3-(1-oxo-5-(((1-phenethylcyclohexyl)amino)methyl)isoindolin-2-yl)piperidine-2,6-dione], the Dmax at IKZF2 is 65%. The values for the DC50 on IKZF2 and on IKZF1 were 0.172 µM and above 1 µM, respectively.
Turning to `CO[C@@H]1CCCC[C@@H]1NCc1ccc2c(c1)CN(C1CCC(=O)NC1=O)C2=O` (stereo partly drawn) [Example 108], on IKZF2, the Dmax was found to be 96% and the DC50 stood at 0.016 µM. On IKZF1, the Dmax stood at 89% and the DC50 was 0.026 µM.
